# Results as given in patent publication US20150105252A1, “SUBSTITUTED PYRAZOLES AS HERBICIDES” (E I DU PONT DE NEMOURS AND COMPANY, priority 2013, published 2015).
# Experiments:
# crabgrass, large = assay: Test C postemergence; assay type: in vivo, Digitaria sanguinalis; conditions: for Plant response rating (scale of 0 to 100 where 0 is no effect and 100 is complete control), Crabgrass, Large: Postemergence, 31 g ai/ha, visually evaluated after 13 to 15 days; for Crabgrass, Large plant response rating / Plant response rating, Crabgrass, Large: postemergence; for Crabgrass, Large plant response rating: 62 g ai/ha, scale 0 to 100
# Procedure, shortened: (§1)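 Scores of 0 (no effect) to 100 (complete control) were assigned by eye after 13–15 days, comparing treated pots with controls. Soil-applied (preemergence) treatments went onto seeds in loam and sand; foliar (postemergence) treatments onto 1- to 4-leaf plants in peat medium.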
# lambsquarters = assay: Test C preemergence; assay type: in vivo, Chenopodium album; conditions: preemergence; for Plant response rating, Lambsquarters: 125 g ai/ha, scale 0 to 100, 0 = no effect, 100 = complete control
# Procedure, shortened: as §1
# barnyardgrass [1] = assay: Test A postemergence; assay type: in vivo, Echinochloa crus-galli
# Procedure, shortened: (§2)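 Pre- and postemergence greenhouse test; loam+sand; cpd in non-phytotox. solvent/surfactant; post at 1–2 leaf, 2–10 cm; visual score ~10 d, 0 = none, 100 = complete control.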
# ducksalad = assay: Test B flood; assay type: in vivo, Heteranthera limosa; conditions: 250 g ai/ha, visual rating on 0 to 100 scale (0 no effect, 100 complete control), 13 to 15 days
# Procedure, shortened: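 2-leaf plants; pots flooded 3 cm over soil; compound added to paddy water, depth kept constant. Greenhouse 13–15 d. Visual rating vs controls, 0–100 scale (100 = complete control); dash = no result.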
# chickweed = assay: Test C postemergence; assay type: in vivo, Stellaria media; conditions: for Plant response rating (scale of 0 to 100 where 0 is no effect and 100 is complete control), Chickweed: Postemergence, 31 g ai/ha, visually evaluated after 13 to 15 days; for Chickweed plant response rating / Plant response rating, Chickweed: postemergence; for Chickweed plant response rating: 62 g ai/ha, scale 0 to 100
# Procedure, shortened: as §1
# johnsongrass = assay: Test C preemergence; assay type: in vivo, Sorghum halepense; conditions: preemergence; for Plant response rating, Johnsongrass: 125 g ai/ha, scale 0 to 100, 0 = no effect, 100 = complete control
# Procedure, shortened: as §1
# corn = assay: Test C postemergence; assay type: in vivo, Zea mays; conditions: for Plant response rating (scale of 0 to 100 where 0 is no effect and 100 is complete control), Corn: Postemergence, 31 g ai/ha, visually evaluated after 13 to 15 days; for Corn plant response rating / Plant response rating, Corn: postemergence; for Corn plant response rating: 62 g ai/ha, scale 0 to 100
# Procedure, shortened: as §1
# soybean = assay: Test C preemergence; assay type: in vivo, Glycine max; conditions: preemergence; for Plant response rating, Soybean: 125 g ai/ha, scale 0 to 100, 0 = no effect, 100 = complete control
# Procedure, shortened: as §1
# pigweed = assay: Test C postemergence; assay type: in vivo, Amaranthus retroflexus; conditions: postemergence; for Pigweed plant response rating: 62 g ai/ha, scale 0 to 100
# Procedure, shortened: as §1
# morningglory = assay: Test A preemergence; assay type: in vivo, Ipomoea spp.; conditions: preemergence; for Morningglory plant response rating (0 to 100 scale): 125 g ai/ha, visual injury approx. 10 days after treatment
# Procedure, shortened: as §2
# blackgrass = assay: Test C preemergence; assay type: in vivo, Alopecurus myosuroides; conditions: preemergence; for Plant response rating, Blackgrass: 125 g ai/ha, scale 0 to 100, 0 = no effect, 100 = complete control
# Procedure, shortened: as §1
# ryegrass, Italian = assay: Test C postemergence; assay type: in vivo, Lolium multiflorum; conditions: postemergence
# Procedure, shortened: as §1
# barnyardgrass [2] = assay: Test C preemergence; assay type: in vivo, Echinochloa crus-galli; conditions: preemergence; for Plant response rating, Barnyardgrass: 125 g ai/ha, scale 0 to 100, 0 = no effect, 100 = complete control
# Procedure, shortened: as §1
# [3] = 250 g ai/ha, scale 0 to 100 (0 no effect, 100 complete control)
# [4] = 125 g ai/ha, scale 0 to 100, 0 no effect, 100 complete control
# [5] = 31 g ai/ha, visual rating, scale 0 to 100 (0 no effect, 100 complete control), 13 to 15 days
# [6] = 62 g ai/ha, scale 0 to 100 (0 no effect, 100 complete control), 13 to 15 days
# [7] = 250 g ai/ha, scale 0 to 100, 0 is no effect, 100 is complete control
# [8] = Postemergence, 500 g ai/ha, 0 to 100 scale (0 no effect, 100 complete control)
compound,measurement,setting,value
CCc1cc(C(=O)NCC(F)(F)F)nn1Cc1ccnc(SC(F)(F)F)c1 [Compound 214],"Plant response rating (scale of 0 to 100 where 0 is no effect and 100 is complete control), Crabgrass, Large","crabgrass, large",5
same,"Crabgrass, Large plant response rating","crabgrass, large",5
same,"Plant response rating, Crabgrass, Large","crabgrass, large; [3]",55
same,"Plant response rating, Crabgrass, Large","crabgrass, large; [4]",20
same,Lambsquarters plant response rating,lambsquarters; [5],100
same,Lambsquarters plant response rating,lambsquarters; [6],100
same,"Plant response rating, Lambsquarters",lambsquarters; 13 to 15 days,100
same,Lambsquarters plant response rating,lambsquarters; [7],100
same,Barnyardgrass plant response rating,"barnyardgrass [1]; Postemergence, 125 g ai/ha, 0 to 100 scale, 0 no effect, 100 complete control",100
same,Barnyardgrass plant response rating,barnyardgrass [1]; [8],100
same,"Plant response rating, Ducksalad",ducksalad,90
same,"Plant response rating (scale of 0 to 100 where 0 is no effect and 100 is complete control), Chickweed",chickweed,50
same,Chickweed plant response rating,chickweed,55
same,"Plant response rating, Chickweed",chickweed; [3],85
same,"Plant response rating, Chickweed",chickweed; [4],70
same,Johnsongrass plant response rating,johnsongrass; [5],0
same,Johnsongrass plant response rating,johnsongrass; [6],40
same,"Plant response rating, Johnsongrass",johnsongrass; 13 to 15 days,75
same,Johnsongrass plant response rating,johnsongrass; [7],90
same,"Plant response rating (scale of 0 to 100 where 0 is no effect and 100 is complete control), Corn",corn,0
same,Corn plant response rating,corn,5
same,"Plant response rating, Corn",corn; [3],10
same,"Plant response rating, Corn",corn; [4],5
same,Soybean plant response rating,soybean; [5],60
same,Soybean plant response rating,soybean; [6],85
same,"Plant response rating, Soybean",soybean; 13 to 15 days,90
same,Soybean plant response rating,soybean; [7],95
same,Pigweed plant response rating,pigweed,60
same,"Plant response rating, Pigweed",pigweed; [3],85
same,"Plant response rating, Pigweed",pigweed; [4],75
same,Morningglory plant response rating (0 to 100 scale),morningglory,80
same,Blackgrass plant response rating,blackgrass; [5],85
same,Blackgrass plant response rating,blackgrass; [6],40
same,"Plant response rating, Blackgrass",blackgrass; 13 to 15 days,90
same,Blackgrass plant response rating,blackgrass; [7],90
same,"Plant response rating, Ryegrass, Italian","ryegrass, Italian; [3]",15
same,"Plant response rating, Ryegrass, Italian","ryegrass, Italian; [4]",5
same,Barnyardgrass plant response rating,barnyardgrass [2]; [5],40
same,Barnyardgrass plant response rating,barnyardgrass [2]; [6],95
same,"Plant response rating, Barnyardgrass",barnyardgrass [2]; 13 to 15 days,100
same,Barnyardgrass plant response rating,barnyardgrass [2]; [7],100
CCCNC(=O)c1cc(CCF)n(Cc2ccnc(C(F)(F)F)c2)n1 [Compound 177],"Plant response rating (scale of 0 to 100 where 0 is no effect and 100 is complete control), Crabgrass, Large","crabgrass, large",5
same,"Crabgrass, Large plant response rating","crabgrass, large",5
same,"Plant response rating, Crabgrass, Large","crabgrass, large; [3]",10
same,"Plant response rating, Crabgrass, Large","crabgrass, large; [4]",5
same,Lambsquarters plant response rating,lambsquarters; [5],85
same,Lambsquarters plant response rating,lambsquarters; [6],98
same,"Plant response rating, Lambsquarters",lambsquarters; 13 to 15 days,98
same,Lambsquarters plant response rating,lambsquarters; [7],98
same,Barnyardgrass plant response rating,barnyardgrass [1]; [8],100
same,Barnyardgrass plant response rating,"barnyardgrass [1]; postemergence, 125 g ai/ha, about 10 days, visual rating on 0 to 100 scale (0 no effect, 100 complete control)",100
same,"Plant response rating, Ducksalad",ducksalad,95
same,"Plant response rating (scale of 0 to 100 where 0 is no effect and 100 is complete control), Chickweed",chickweed,60
same,Chickweed plant response rating,chickweed,75
same,"Plant response rating, Chickweed",chickweed; [3],90
same,"Plant response rating, Chickweed",chickweed; [4],70
same,Johnsongrass plant response rating,johnsongrass; [5],10
same,Johnsongrass plant response rating,johnsongrass; [6],70
same,"Plant response rating, Johnsongrass",johnsongrass; 13 to 15 days,100
same,Johnsongrass plant response rating,johnsongrass; [7],98
same,"Plant response rating (scale of 0 to 100 where 0 is no effect and 100 is complete control), Corn",corn,5
same,Corn plant response rating,corn,20
same,"Plant response rating, Corn",corn; [3],15
same,"Plant response rating, Corn",corn; [4],15
same,Soybean plant response rating,soybean; [5],40
same,Soybean plant response rating,soybean; [6],70
same,"Plant response rating, Soybean",soybean; 13 to 15 days,95
same,Soybean plant response rating,soybean; [7],98
same,Pigweed plant response rating,pigweed,40
same,"Plant response rating, Pigweed",pigweed; [3],85
same,"Plant response rating, Pigweed",pigweed; [4],75
same,Morningglory plant response rating (0 to 100 scale),morningglory,100
same,Morningglory plant response rating,"morningglory; 500 g ai/ha, visual injury after approx. 10 days, 0 to 100 scale (0 no effect, 100 complete control)",100
same,Blackgrass plant response rating,blackgrass; [5],50
same,Blackgrass plant response rating,blackgrass; [6],85
same,"Plant response rating, Blackgrass",blackgrass; 13 to 15 days,90
same,Blackgrass plant response rating,blackgrass; [7],90
same,"Plant response rating, Ryegrass, Italian","ryegrass, Italian; [3]",5
same,"Plant response rating, Ryegrass, Italian","ryegrass, Italian; [4]",5
same,Barnyardgrass plant response rating,barnyardgrass [2]; [5],65
same,Barnyardgrass plant response rating,barnyardgrass [2]; [6],100
same,"Plant response rating, Barnyardgrass",barnyardgrass [2]; 13 to 15 days,100
same,Barnyardgrass plant response rating,barnyardgrass [2]; [7],100
